According to PubChem BioAssay AID1845215 (Molecular Pharmacology Branch, DTP, NCI, 2023):

Test system: SW 1271 complex tumor spheroid viability
Assay: Anticancer human tumor SW 1271 cell line growth inhibition;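 further: spheroids exposed to agents for seven days before readout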;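 on viability, T/C: percent of DMSO vehicle control luminescence so 100% = vehicle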
Conditions: for IC50: curve of first compound; for viability, T/C: stronger effect = lower value
Outline: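 Complex tumor spheroids combined malignant cells with endothelial cells and mesenchymal stem cells. DNA-damaging drugs and DNA repair inhibitors were tested alone and in combination, at half-log dilutions down from clinical Cmax (top 10 microM if Cmax unknown), 0.25% DMSO final.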

[1] = second compound 0.003 µM, first compound 0.0316 µM
[2] = second compound 0.003 µM, first compound 0.1 µM
[3] = second compound 0.003 µM, first compound 0.316 µM
[4] = second compound 0.003 µM, first compound 1 µM
[5] = second compound 0.003 µM, first compound 3.16 µM
[6] = second compound 0.003 µM, first compound 10 µM
[7] = second compound 0.00949 µM, first compound 0.0316 µM
[8] = second compound 0.00949 µM, first compound 0.1 µM
[9] = second compound 0.00949 µM, first compound 0.316 µM
[10] = second compound 0.00949 µM, first compound 1 µM
[11] = second compound 0.00949 µM, first compound 3.16 µM
[12] = second compound 0.00949 µM, first compound 10 µM
[13] = second compound 0.03 µM, first compound 0.0316 µM
[14] = second compound 0.03 µM, first compound 0.1 µM
[15] = second compound 0.03 µM, first compound 0.316 µM
[16] = second compound 0.03 µM, first compound 1 µM
[17] = second compound 0.03 µM, first compound 3.16 µM
[18] = second compound 0.03 µM, first compound 10 µM
[19] = second compound 0.0949 µM, first compound 0.0316 µM
[20] = second compound 0.0949 µM, first compound 0.1 µM
[21] = second compound 0.0949 µM, first compound 0.316 µM
[22] = second compound 0.0949 µM, first compound 1 µM
[23] = second compound 0.0949 µM, first compound 3.16 µM
[24] = second compound 0.0949 µM, first compound 10 µM
[25] = second compound 0.3 µM, first compound 0.0316 µM
[26] = second compound 0.3 µM, first compound 0.1 µM
[27] = second compound 0.3 µM, first compound 0.316 µM
[28] = second compound 0.3 µM, first compound 1 µM
[29] = second compound 0.3 µM, first compound 3.16 µM
[30] = second compound 0.3 µM, first compound 10 µM

Row | SMILES | IC50 (second compound 0.003 µM) [nM] | IC50 (second compound 0.00949 µM) [nM] | IC50 (second compound 0.03 µM) [nM] | IC50 (second compound 0.0949 µM) [nM] | IC50 (second compound 0.3 µM) [nM] | viability, T/C [1] [%] | viability, T/C [2] [%] | viability, T/C [3] [%] | viability, T/C [4] [%] | viability, T/C [5] [%] | viability, T/C [6] [%] | viability, T/C [7] [%] | viability, T/C [8] [%] | viability, T/C [9] [%] | viability, T/C [10] [%] | viability, T/C [11] [%] | viability, T/C [12] [%] | viability, T/C [13] [%] | viability, T/C [14] [%] | viability, T/C [15] [%] | other results
1 | CC(C)n1c(=O)n(C)c2cnc3cc(F)c(-c4ccc(OCCCN5CCCCC5)nc4)cc3c21 + CC[C@@]1(O)C(=O)OCc2c1cc1n(c2=O)Cc2cc3c(CN(C)C)c(O)ccc3nc2-1 | < 31.6 | < 31.6 | < 31.6 | < 31.6 | < 31.6 | 28.2 | 26.8 | 25 | 27.7 | 19.3 | 7.91 | 15.9 | 17.9 | 14.5 | 12.2 | 11.3 | 5.27 | 20.4 | 17.7 | 16 | viability, T/C [16]: 15.8%; viability, T/C [17]: 8.12%; viability, T/C [18]: 3.67%; viability, T/C [19]: 23.9%; viability, T/C [20]: 24.6%; viability, T/C [21]: 23.2%; viability, T/C [22]: 19.8%; viability, T/C [23]: 7.87%; viability, T/C [24]: 3.44%; viability, T/C [25]: 14.6%; viability, T/C [26]: 13.2%; viability, T/C [27]: 16.4%; viability, T/C [28]: 16.1%; viability, T/C [29]: 7.25%; viability, T/C [30]: 4.47%
2 | CC1COCCN1c1cc(-c2ccnn2C)c2ccnc(-c3ccn[nH]3)c2n1 (stereo not given) + CC[C@@]1(O)C(=O)OCc2c1cc1n(c2=O)Cc2cc3c(CN(C)C)c(O)ccc3nc2-1 | < 31.6 | < 31.6 | < 31.6 | < 31.6 | < 31.6 | 26 | 11.3 | 4.59 | 2.3 | 1.84 | 1.92 | 6.62 | 4.56 | 3.33 | 2.14 | 1.49 | 1.95 | 6.54 | 4.67 | 3.37 | viability, T/C [16]: 2.33%; viability, T/C [17]: 1.73%; viability, T/C [18]: 1.79%; viability, T/C [19]: 8.42%; viability, T/C [20]: 6.2%; viability, T/C [21]: 4.79%; viability, T/C [22]: 2.58%; viability, T/C [23]: 1.54%; viability, T/C [24]: 1.64%; viability, T/C [25]: 5.08%; viability, T/C [26]: 3.04%; viability, T/C [27]: 2.79%; viability, T/C [28]: 2.96%; viability, T/C [29]: 1.02%; viability, T/C [30]: 0.73%
3 | COc1cc(C)[nH]c(=O)c1CN1CCc2c(Cl)cc(C(OC)C3COC3)c(Cl)c2C1=O (stereo not given) + CC[C@@]1(O)C(=O)OCc2c1cc1n(c2=O)Cc2cc3c(CN(C)C)c(O)ccc3nc2-1 | > 10000 | > 10000 | < 31.6 | < 31.6 | < 31.6 | 90.4 | 94.9 | 93.3 | 93.3 | 85.3 | 75.2 | 73.6 | 70.4 | 69.6 | 57.3 | 64.9 | 56.5 | 29.6 | 28.5 | 34.3 | viability, T/C [16]: 31.1%; viability, T/C [17]: 32.4%; viability, T/C [18]: 31%; viability, T/C [19]: 28.8%; viability, T/C [20]: 30.5%; viability, T/C [21]: 29.5%; viability, T/C [22]: 32.5%; viability, T/C [23]: 33.1%; viability, T/C [24]: 23.5%; viability, T/C [25]: 14.2%; viability, T/C [26]: 16.1%; viability, T/C [27]: 18.8%; viability, T/C [28]: 16.7%; viability, T/C [29]: 13.7%; viability, T/C [30]: 10.9%
4 | COc1ccc([C@@H](O)c2cc(-c3ncnc4cc(N5CCOCC5)ccc34)c(F)cc2Cl)nn1 + CC[C@@]1(O)C(=O)OCc2c1cc1n(c2=O)Cc2cc3c(CN(C)C)c(O)ccc3nc2-1 | 1230 | 103 | < 31.6 | < 31.6 | < 31.6 | 83.3 | 85.1 | 75.2 | 54.3 | 26.9 | 6.38 | 57.9 | 53 | 37.9 | 29.6 | 19.6 | 6.43 | 31.5 | 31.1 | 28.8 | viability, T/C [16]: 28.6%; viability, T/C [17]: 19.9%; viability, T/C [18]: 6.27%; viability, T/C [19]: 27.9%; viability, T/C [20]: 27.6%; viability, T/C [21]: 25%; viability, T/C [22]: 25.9%; viability, T/C [23]: 21.7%; viability, T/C [24]: 3.71%; viability, T/C [25]: 13%; viability, T/C [26]: 14.8%; viability, T/C [27]: 15%; viability, T/C [28]: 10.2%; viability, T/C [29]: 1.72%; viability, T/C [30]: 0.2%
5 | [2H]c1nc(C)nc([2H])c1-c1cc(NC[C@@H](C)c2cccc3c(C(=O)NC)ccnc23)ncn1 + CC[C@@]1(O)C(=O)OCc2c1cc1n(c2=O)Cc2cc3c(CN(C)C)c(O)ccc3nc2-1 | > 10000 | 1350 | < 31.6 | < 31.6 | < 31.6 | 94.2 | 90.5 | 95.4 | 94.6 | 88.9 | 79.9 | 58.9 | 51.1 | 58.7 | 48.3 | 47.9 | 39.4 | 36.5 | 35.3 | 34.5 | viability, T/C [16]: 36.6%; viability, T/C [17]: 34.2%; viability, T/C [18]: 31.6%; viability, T/C [19]: 34%; viability, T/C [20]: 32.6%; viability, T/C [21]: 30.1%; viability, T/C [22]: 31.4%; viability, T/C [23]: 33.1%; viability, T/C [24]: 26%; viability, T/C [25]: 19.9%; viability, T/C [26]: 17.5%; viability, T/C [27]: 15.1%; viability, T/C [28]: 17%; viability, T/C [29]: 14.2%; viability, T/C [30]: 8.53%
